Reference: patent US20260049092A1, “ANTIBACTERIAL COMPOUNDS” (Blacksmith Medicines, Inc., priority 2022, published 2026)
Converted amounts (≈) assume the structure as drawn. Like-named read-outs stand apart in the source and are kept apart here.

Experiments:
Test in all cases: Bacterial susceptibility testing (MIC, broth microdilution)
Assay type in all cases: cell-based
P. aeruginosa PAO1 = conditions: Pseudomonas aeruginosa
Method: (§1) Minimal inhibitory concentrations (MIC) were determined by the broth microdilution method in accordance with the Clinical and Laboratory Standards Institute (CLSI) guidelines. In brief, organism suspensions were adjusted to a final inoculum between 3×10^5 and 7×10^5 colony-forming units (CFU)/mL. Drug dilutions and inocula were made in sterile, cation adjusted Mueller-Hinton Broth (Beckton Dickinson). In wells, an inoculum volume of 100 μL was mixed to 2 μL of DMSO with 2-fold serial dilutions of drug. All inoculated microdilution trays were incubated in ambient air at 35° C. for 18-24 h. Following incubation, the lowest concentration of the drug that prevented visible growth (OD600 nm<0.05) was recorded as the MIC. Performance of the assay was monitored by the use of laboratory quality -control strains and compounds with defined MIC spectrum, in accordance with CLSI guidelines.

E. coli ATCC25922 = conditions: Escherichia coli
Method: as §1

P. aeruginosa ATCC27853 = conditions: Pseudomonas aeruginosa
Method: as §1

K. pneumoniae ATCC13883 = conditions: Klebsiella pneumoniae
Method: as §1

[1] = PAO1, broth microdilution, cation adjusted Mueller-Hinton Broth, 35° C., 18-24 h, read-out: P. aeruginosa PAO1 MIC
[2] = ATCC25922, broth microdilution, cation adjusted Mueller-Hinton Broth, 35° C., 18-24 h, read-out: E. coli ATCC25922 MIC
[3] = ATCC27853, broth microdilution, cation adjusted Mueller-Hinton Broth, 35° C., 18-24 h, read-out: P. aeruginosa ATCC27853 MIC
[4] = ATCC13883, broth microdilution, cation adjusted Mueller-Hinton Broth, 35° C., 18-24 h, read-out: K. pneumoniae ATCC13883 MIC
[5] = PAO1, read-out: P. aeruginosa PAO1 MIC
[6] = ATCC25922, read-out: E. coli ATCC25922 MIC
[7] = ATCC27853, read-out: P. aeruginosa ATCC27853 MIC
[8] = ATCC13883, read-out: K. pneumoniae ATCC13883 MIC

`CO[C@H]1C[C@@H](c2ccc(-c3ccc(C#C[C@@H](CO)n4ccnc4[C@H](C)O)cc3)cc2)C1` (racemic) [Compound 118, (S)-2-(2-((S)-1-hydroxyethyl)-1H-imidazol-1-yl)-4-(4′-((rac-cis)-3-methoxycyclobutyl)-[1,1′-biphenyl]-4-yl)but-3-yn-1-ol] was tested, and the MIC (P. aeruginosa PAO1; [1]) was 2 µg/mL (≈ 4.8 µM), the MIC (E. coli ATCC25922; [2]) was 0.12 µg/mL (≈ 0.288 µM) and the MIC (P. aeruginosa ATCC27853; [3]) was 4 µg/mL (≈ 9.6 µM). It also gave an MIC (K. pneumoniae ATCC13883; [4]) of 0.38 µg/mL (≈ 0.912 µM).

With `C[C@H](O)c1nccn1[C@@H](C#Cc1ccc(-c2ccc(N[C@H]3COC[C@@H]3O)cc2)cc1)CO` [Compound 71, (3R,4S)-4-((4′-((S)-4-hydroxy-3-(2-((S)-1-hydroxyethyl)-1H-imidazol-1-yl)but-1-yn-1-yl)-[1,1′-biphenyl]-4-yl)amino)tetrahydrofuran-3-ol] the MIC (P. aeruginosa PAO1; [1]) was 4 µg/mL (≈ 9.23 µM), the MIC (E. coli ATCC25922; [2]) was 2 µg/mL (≈ 4.61 µM) and the MIC (P. aeruginosa ATCC27853; [3]) was 4 µg/mL (≈ 9.23 µM). The MIC (K. pneumoniae ATCC13883; [4]) was 4 µg/mL (≈ 9.23 µM).

For `C[C@H](O)c1nccn1[C@@H](C#Cc1ccc(-c2ccc(O[C@H]3C[C@@H](CNCC#N)C3)cc2)cc1)CO` (racemic) [Compound 142, 2-((((rac-cis)-3-((4′-((S)-4-hydroxy-3-(2-((S)-1-hydroxyethyl)-1H-imidazol-1-yl)but-1-yn-1-yl)-[1,1′-biphenyl]-4-yl)oxy)cyclobutyl)methyl)amino)acetonitrile], the MIC (P. aeruginosa PAO1; [5]) was 2 µg/mL (≈ 4.25 µM), the MIC (E. coli ATCC25922; [6]) was 1 µg/mL (≈ 2.13 µM) and the MIC (P. aeruginosa ATCC27853; [7]) was 4 µg/mL (≈ 8.5 µM). For the same molecule, the MIC (K. pneumoniae ATCC13883; [8]) was 2 µg/mL (≈ 4.25 µM).

`C[C@H](O)c1nccn1[C@@H](C#Cc1ccc(-c2ccc(O[C@@H]3COC[C@H]3O)c(F)c2F)cc1)CO` (single isomer, unassigned) [Compound 13] showed an MIC (P. aeruginosa PAO1; [1]) of 4 µg/mL (≈ 8.5 µM), an MIC (E. coli ATCC25922; [2]) of 2 µg/mL (≈ 4.25 µM) and an MIC (P. aeruginosa ATCC27853; [3]) of 16 µg/mL (≈ 34 µM). The MIC (K. pneumoniae ATCC13883; [4]) was 4 µg/mL (≈ 8.5 µM).

In the case of `Cc1cc(-c2ccc(C#C[C@@H](CO)n3ccnc3[C@H](C)O)cc2)ccc1O[C@H]1COC[C@@H]1O` (single isomer, unassigned) [Compound 114], the MIC (P. aeruginosa PAO1; [1]) was 16 µg/mL (≈ 35.7 µM), the MIC (E. coli ATCC25922; [2]) was 4 µg/mL (≈ 8.92 µM) and the MIC (P. aeruginosa ATCC27853; [3]) was over 32 µg/mL. For the same molecule, the MIC (K. pneumoniae ATCC13883; [4]) was 8 µg/mL (≈ 17.8 µM).

In the case of `C[C@H](O)c1nccn1[C@@H](C#Cc1ccc(-c2ccc(OC3COC[C@@H]3O)c(F)c2)cc1)CO` (single isomer, unassigned) [Compound 7], the MIC (P. aeruginosa PAO1; [1]) was 2 µg/mL (≈ 4.42 µM), the MIC (E. coli ATCC25922; [2]) was 1 µg/mL (≈ 2.21 µM) and the MIC (P. aeruginosa ATCC27853; [3]) was 4 µg/mL (≈ 8.84 µM). It also gave an MIC (K. pneumoniae ATCC13883; [4]) of 4 µg/mL (≈ 8.84 µM).

With `CC(=O)N[C@H]1C[C@@H](c2ccc(-c3ccc(C#C[C@@H](CO)n4ccnc4[C@H](C)O)cc3)cc2)C1` (racemic) [Compound 135, N-((rac-cis)-3-(4′-((S)-4-hydroxy-3-(2-((S)-1-hydroxyethyl)-1H-imidazol-1-yl)but-1-yn-1-yl)-[1,1′-biphenyl]-4-yl)cyclobutyl)acetamide] the MIC (P. aeruginosa PAO1; [1]) was 2 µg/mL (≈ 4.51 µM), the MIC (E. coli ATCC25922; [2]) was 0.5 µg/mL (≈ 1.13 µM) and the MIC (P. aeruginosa ATCC27853; [3]) was 2 µg/mL (≈ 4.51 µM). For the same molecule, the MIC (K. pneumoniae ATCC13883; [4]) was 2 µg/mL (≈ 4.51 µM).

Molecule `C[C@H](O)c1nccn1[C@@H](C#Cc1ccc(-c2ccc(N[C@@H]3CCC[C@H]3O)cc2)cc1)CO` [Compound 78, (1R,2R)-2-((4′-((S)-4-hydroxy-3-(2-((S)-1-hydroxyethyl)-1H-imidazol-1-yl)but-1-yn-1-yl)-[1,1′-biphenyl]-4-yl)amino)cyclopentan-1-ol] has an MIC (P. aeruginosa PAO1; [1]) of 4 µg/mL (≈ 9.27 µM), an MIC (E. coli ATCC25922; [2]) of 1 µg/mL (≈ 2.32 µM) and an MIC (P. aeruginosa ATCC27853; [3]) of 4 µg/mL (≈ 9.27 µM). It also gave an MIC (K. pneumoniae ATCC13883; [4]) of 4 µg/mL (≈ 9.27 µM).

In the case of `C[C@H](O)c1nccn1[C@@H](C#Cc1ccc(-c2ccc3c(c2)NC(=O)C3)cc1)CO` [Compound 84, 6-(4-((S)-4-hydroxy-3-(2-((S)-1-hydroxyethyl)-1H-imidazol-1-yl)but-1-yn-1-yl)phenyl)indolin-2-one], the MIC (P. aeruginosa PAO1; [1]) was 8 µg/mL (≈ 20.6 µM), the MIC (E. coli ATCC25922; [2]) was 8 µg/mL (≈ 20.6 µM) and the MIC (P. aeruginosa ATCC27853; [3]) was 16 µg/mL (≈ 41.3 µM). It also gave an MIC (K. pneumoniae ATCC13883; [4]) of 32 µg/mL (≈ 82.6 µM).

`C[C@H](O)c1nccn1[C@@H](C#Cc1ccc(-c2ccc(CO[C@@H]3COC[C@H]3O)cc2)cc1)CO` (single isomer, unassigned) [Compound 123] gave an MIC (P. aeruginosa PAO1; [1]) of 2 µg/mL (≈ 4.46 µM), an MIC (E. coli ATCC25922; [2]) of 2 µg/mL (≈ 4.46 µM) and an MIC (P. aeruginosa ATCC27853; [3]) of 4 µg/mL (≈ 8.92 µM). It also gave an MIC (K. pneumoniae ATCC13883; [4]) of 2 µg/mL (≈ 4.46 µM).

`C[C@H](O)c1nccn1[C@@H](C#Cc1ccc(-c2ccc(O[C@H]3COC[C@@H]3O)cc2Cl)cc1)CO` (single isomer, unassigned) [Compound 48] gave an MIC (P. aeruginosa PAO1; [1]) of 2 µg/mL (≈ 4.26 µM), an MIC (E. coli ATCC25922; [2]) of 1 µg/mL (≈ 2.13 µM) and an MIC (P. aeruginosa ATCC27853; [3]) of 4 µg/mL (≈ 8.53 µM). For the same molecule, the MIC (K. pneumoniae ATCC13883; [4]) was 4 µg/mL (≈ 8.53 µM).

With `C[C@H](O)c1nccn1[C@@H](C#Cc1ccc(-c2ccc(OC3CN(CC(F)(F)F)C3)cc2)cc1)CO` [Compound 86, (S)-2-(2-((S)-1-hydroxyethyl)-1H-imidazol-1-yl)-4-(4′-((1-(2,2,2-trifluoroethyl)azetidin-3-yl)oxy)-[1,1′-biphenyl]-4-yl)but-3-yn-1-ol] the MIC (P. aeruginosa PAO1; [5]) was 4 µg/mL (≈ 8.24 µM), the MIC (E. coli ATCC25922; [6]) was 1 µg/mL (≈ 2.06 µM) and the MIC (P. aeruginosa ATCC27853; [7]) was 16 µg/mL (≈ 33 µM). The MIC (K. pneumoniae ATCC13883; [8]) was 2 µg/mL (≈ 4.12 µM).
